Our source for the TGI and GI50 values is PubChem BioAssay (NCI).

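A five-concentration, 48-hour dose response in 96-well plates underlies each endpoint, interpolated linearly between surrounding concentrations. The concentration for 50% growth inhibition is given as GI50. TGI denotes the concentration required for complete inhibition of growth.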

Among the test systems are LOX IMVI melanoma; SK-MEL-5 melanoma; DMS 273 small cell lung; DMS 114 small cell lung; M19-MEL melanoma; XF 498 CNS; SNB-78 CNS; DLD-1 colon; K-562 leukemia; CCRF-CEM leukemia.
Holding throughout (assay): DTP human tumour cell line panel, 48 h

Broadly, the TGI is the concentration giving total growth inhibition. As for `O=C(N/N=C/c1cc(Br)cc(Br)c1[O-])c1ccccc1O.O=C(N/N=C/c1cc(Br)cc(Br)c1[O-])c1ccccc1O.[Zn+2]`, the concentration for total growth inhibition (TGI) with LOX IMVI melanoma worked out at 13.7 µM; with SK-MEL-5 melanoma, 2580 nM.
In general, GI50 refers to the concentration at which growth is held to half of that of the control. With `C/C(=N\NC(=O)c1ccccc1O)c1cccc(/C(C)=N/NC(=O)c2ccccc2O)n1.O=S(=O)([O-])[O-].[Fe+2]`, the GI50 with DMS 273 small cell lung is 46.4 µM; in the assay on M19-MEL melanoma, above 100 µM; in the assay on SNB-78 CNS, above 100 µM; in the assay with DLD-1 colon, above 100 µM; in the assay on CCRF-CEM leukemia it was 1420 nM. Also, the concentration for total growth inhibition (TGI) in the assay on DMS 273 small cell lung, in the assay with DMS 114 small cell lung, with M19-MEL melanoma, in the assay on XF 498 CNS, in the assay with SNB-78 CNS and in the assay with DLD-1 colon was above 100 µM in each case. Also, the total growth inhibition concentration (TGI) in the assay on K-562 leukemia is above 100 µM; in the assay with CCRF-CEM leukemia it was 5.74 µM.
